From patent US9266835B2, “Quinoline derivatives useful as CB-1 inverse agonists” (JANSSEN PHARMACEUTICA NV, priority 2014, dated 2016)
Read-outs that look alike come from different tables or passages of the source.

What was measured:
[1] = Open field locomotor study in rats: plasma and brain concentrations 4 hrs post dosing; type: in vivo; settings: male, Sprague Dawley, rat, oral
Text: (§1) Male Sprague Dawley rats were ordered from Charles River (225-250 gm upon arrival). They were fed standard chow diet (Purina 5001) and housed 2 per cage. Male C57bl/6j mice were ordered from Charles River at 22-25 g and housed 3 per cage. They were fed standard chow (Purina 5001). All animals were housed in a temperature-controlled room with 12-hour light/dark cycle. Animals were given food and water ad libitum, except as noted.
(§2) Test compounds were formulated in 10% PEG400 and 10% solutol. Test compounds were administered by oral gavage (5 ml kg^−1).
(§3) Male SD rats were weighed and transferred to the Activity Chambers with access to water. After a 2-hr acclimation period, the rats were dosed with vehicle or test compound (@ 3 and 10 mg/kg). The Activity Chamber monitoring software program was initiated and automatically recorded rat activity in each chamber for a period of 4 hours. At the end of the 4 hour monitoring period, the software was stopped and the rats were removed from the activity chambers. The rats were anesthetized and blood samples were obtained via retro-orbital puncture to determine plasma concentration of compounds. The rats were immediately euthanized with CO2 and the brains removed, washed with PBS, frozen on dry ice and stored at −80° C. for receptor occupancy (RO) analysis.
Satellite groups of 3 rats were dosed with test compound at 3 mg/kg and 10 mg/kg respectively. Four hours later, the rats were anesthetized. Blood was collected from these rats and then they were perfused with 400 ml heparinized saline through the left ventricle of the heart. The brains were removed and homogenized in PBS (4 ml/gm tissue). The samples were submitted for determination of plasma and brain compound levels.
Compound #44 was tested in n=8 animals, according to the procedure as described above, with stereotypic counts as listed in Table BIO-5A; and plasma and brain drug levels as listed in Table BIO-5B, below.

[2] = Open Field Locomotor Activity in Rats (CNS activity), stereotypic counts; type: in vivo, rat; settings: n=8, 4 hours, dose not printed in row (doses 3 and 10 mg/kg)
Text: as §1, §2
as §3, with “analysis. […]” for “analysis.”

[3] = Chronic DIO Mouse, first study (food intake, body weight, insulin tolerance test, glucose tolerance test, plasma insulin, fed blood glucose); type: in vivo; settings: DIO mice; for Fed Blood Glucose / Plasma Insulin: mean (Std Err)
Method: Male 14-20-week old diet-induced obese mice were ordered from Taconic. Mice were started on a 60% fat diet (D12492, Research Diets, New Brunswick, N.J.) at 6 weeks of age. Mice were single-housed.
as §2
The test compound was formulated in 10% PEG400 and 10% solutol. DIO mice received vehicle, test compound (@ 1, 3 and 10 mg/kg) daily for 26 days. At the end of the experiment, the mice were euthanized and blood and tissues were collected.
Body weight and food weight (food intake) were monitored daily for days 1-5 and twice weekly thereafter. Fed blood glucose was measured weekly.
An insulin tolerance test (0.5 U/kg Humulin, ip) was performed on day 19 after a 4 hour food removal. Blood glucose was measured at 0, 15, 30, 60 and 120 minutes after insulin. […] Blood glucose was measured at 0, 30, 60 and 120 minutes after glucose challenge.
Blood glucose was measured from the tail vein with a Lifescan glucometer. Plasma insulin was measured with an ELISA or HTRF kit (Cisbio). Plasma parameters were measured with an Olympus clinical chemistry analyzer.
Compound #44 was tested according to the procedure as described above, with results as listed in Table BIO-4A through Table BIO4-G, below.

- concentration at 4 h ([1]; brain, 3 mg/kg, read-out: Brain Mean ± Std Dev): 9.85 ng/g
- concentration at 4 h ([1]; brain, 10 mg/kg, read-out: Brain Mean ± Std Dev): 22.7 ng/g
- concentration at 4 h ([1]; plasma, 3 mg/kg, read-out: Plasma Mean ± Std Dev): 126 ng/mL
- concentration at 4 h ([1]; plasma, 10 mg/kg, read-out: Plasma Mean ± Std Dev): 501 ng/mL
- Stereotypic Counts (MEAN) ([2]; first #44 row): 3250
- Stereotypic Counts (MEAN) ([2]; second #44 row): 2850
Structure (SMILES): O=c1cc(NC2CCN(S(=O)(=O)C(F)(F)F)CC2)c2cc(C(c3ccc(Cl)cc3)c3ccc(Cl)cc3)ccc2[nH]1 [Compound #44, 6-(bis(4-chlorophenyl)methyl)-4-(1-(trifluoromethylsulfonyl)piperidin-4-ylamino)quinolin-2(1H)-one]
- Fed Blood Glucose ([3]; 1 mg/kg daily oral, Day 0): 162.75 (13.02) mg/dL
- Fed Blood Glucose ([3]; 1 mg/kg daily oral, Day 18): 154.83 (5.98) mg/dL
- Plasma Insulin ([3]; 1 mg/kg daily oral): 2.60 (0.3) ng/mL
- Mean Body Weight (Std Err) ([3]; 1 mg/kg daily, Day 1): 43.32 (0.45) Grams
- Mean Body Weight (Std Err) ([3]; 1 mg/kg daily, Day 2): 43.28 (0.45) Grams
- Mean Daily Food Intake (Std Err) ([3]; 1 mg/kg daily, Day 2): 2.84 (0.17) Grams
- Mean Body Weight (Std Err) ([3]; 1 mg/kg daily, Day 3): 43.28 (0.42) Grams
- Mean Daily Food Intake (Std Err) ([3]; 1 mg/kg daily, Day 3): 3.00 (0.09) Grams
- Mean Body Weight (Std Err) ([3]; 1 mg/kg daily, Day 4): 43.06 (0.44) Grams
- Mean Daily Food Intake (Std Err) ([3]; 1 mg/kg daily, Day 4): 2.76 (0.17) Grams
- Mean Body Weight (Std Err) ([3]; 1 mg/kg daily, Day 5): 43.21 (0.50) Grams
- Mean Daily Food Intake (Std Err) ([3]; 1 mg/kg daily, Day 5): 2.88 (0.12) Grams
- Mean Body Weight (Std Err) ([3]; 1 mg/kg daily, Day 8): 42.62 (0.48) Grams
- Mean Daily Food Intake (Std Err) ([3]; 1 mg/kg daily, Day 8): 2.50 (0.09) Grams
- Mean Body Weight (Std Err) ([3]; 1 mg/kg daily, Day 10): 42.38 (0.51) Grams
- Mean Daily Food Intake (Std Err) ([3]; 1 mg/kg daily, Day 10): 2.37 (0.07) Grams
- Mean Body Weight (Std Err) ([3]; 1 mg/kg daily, Day 11): 42.07 (0.63) Grams
- Mean Daily Food Intake (Std Err) ([3]; 1 mg/kg daily, Day 11): 2.28 (0.15) Grams
- Insulin Tolerance Test, Blood Glucose AUC ([3]; 1 mg/kg daily, day 19): 18543.8 mg·min/dL
- Insulin Tolerance Test Mean Blood Glucose (Std Err) ([3]; 1 mg/kg daily, day 19, 0 min after insulin): 194.0 (6.1) mg/dL
- Insulin Tolerance Test Mean Blood Glucose (Std Err) ([3]; 1 mg/kg daily, day 19, 15 min after insulin): 196.1 (18.6) mg/dL
- Insulin Tolerance Test Mean Blood Glucose (Std Err) ([3]; 1 mg/kg daily, day 19, 30 min after insulin): 136.7 (10.4) mg/dL
- Insulin Tolerance Test Mean Blood Glucose (Std Err) ([3]; 1 mg/kg daily, day 19, 60 min after insulin): 145.1 (11.5) mg/dL
- Insulin Tolerance Test Mean Blood Glucose (Std Err) ([3]; 1 mg/kg daily, day 19, 120 min after insulin): 151.4 (7.8) mg/dL
- Intraperitoneal Glucose Tolerance Test Blood Glucose AUC ([3]; 1 mg/kg daily, day 23): 29525.6 mg·min/dL
- Intraperitoneal Glucose Tolerance Test Mean Blood Glucose (Std Err) ([3]; 1 mg/kg daily, day 23, 0 min after glucose): 158.1 (6.9) mg/dL
- Intraperitoneal Glucose Tolerance Test Mean Blood Glucose (Std Err) ([3]; 1 mg/kg daily, day 23, 30 min after glucose): 334.6 (14.5) mg/dL
- Intraperitoneal Glucose Tolerance Test Mean Blood Glucose (Std Err) ([3]; 1 mg/kg daily, day 23, 60 min after glucose): 264.8 (19.7) mg/dL
- Intraperitoneal Glucose Tolerance Test Mean Blood Glucose (Std Err) ([3]; 1 mg/kg daily, day 23, 120 min after glucose): 173.4 (13.5) mg/dL
- Fed Blood Glucose ([3]; 3 mg/kg daily oral, Day 0): 167.13 (7.59) mg/dL
- Fed Blood Glucose ([3]; 3 mg/kg daily oral, Day 18): 156.50 (7.39) mg/dL
- Plasma Insulin ([3]; 3 mg/kg daily oral): 2.26 (0.3) ng/mL
- Mean Body Weight (Std Err) ([3]; 3 mg/kg daily, Day 1): 43.19 (0.39) Grams
- Mean Body Weight (Std Err) ([3]; 3 mg/kg daily, Day 2): 42.86 (0.47) Grams
- Mean Daily Food Intake (Std Err) ([3]; 3 mg/kg daily, Day 2): 2.71 (0.13) Grams
- Mean Body Weight (Std Err) ([3]; 3 mg/kg daily, Day 3): 42.71 (0.56) Grams
- Mean Daily Food Intake (Std Err) ([3]; 3 mg/kg daily, Day 3): 2.92 (0.13) Grams
- Mean Body Weight (Std Err) ([3]; 3 mg/kg daily, Day 4): 42.20 (0.65) Grams
- Mean Daily Food Intake (Std Err) ([3]; 3 mg/kg daily, Day 4): 2.44 (0.24) Grams
- Mean Body Weight (Std Err) ([3]; 3 mg/kg daily, Day 5): 41.95 (0.70) Grams
